Type in all cases: in vivo
The subject of data set [1] is Aβ42. As to the kind of experiment: determination of Aβ42 content in the hippocampus (Elisa kit). The note with it: KI mice, 4 mmol/L Al(mal)3 i.p. 10 ml/kg, 60 days. On the procedure:
(§1) Example 1 Establishment of aluminum-exposed ApoE4 transgenic mouse model 16 healthy male ApoE4 transgenic mice (KI), 16 ApoE knockout mice (KO) and 16 wild-type mice (C57BL/6J, WT) aged 4 to 5 weeks were selected, with similar activities and weights of 18 g to 20 g. They were randomly divided into control group (NS) and aluminum-exposed group (Al), with 8 animals in each group.
(§2) An 8 mmol/L aluminum chloride solution and a 24 mmol/L maltol solution were prepared with sterilized triple distilled water, then the two solutions were mixed in a volume ratio of 1:1 to obtain a Al(mal)3 solution with a final concentration of 4 mmol/L, and pH was adjusted to 7.4 with 10% NaOH. The animals in the aluminum-exposed group were intraperitoneally injected with the Al(mal)3 at a volume of 10 ml/kg, with aluminum exposure for 60 days, and interval time of 2 days for every 5 days; and the control group was given the same volume of normal saline (NS).
This example was different from the above examples in that the determination of Aβ42 content was added. The hippocampus tissue of a mouse was stripped, and crushed with an ultrasonic processor; the hippocampal tissue protein was extracted with a tissue protein extraction reagent; and the Aβ42 content in the hippocampus was detected with an Aβ42 protein Elisa kit.

For data set [2], the system named is ApoE4 transgenic mice (KI). As to the kind of experiment: new object recognition test. The settings on record: 4 mmol/L Al(mal)3 i.p. 10 ml/kg, 60 days, testing session T2, 1 h after training, compared among all groups. On the procedure: as §1
(§3) An 8 mmol/L aluminum chloride solution and a 24 mmol/L maltol solution were prepared with sterilized triple distilled water, then the two solutions were mixed in a volume ratio of 1:1 to obtain a Al(mal)3 solution with a final concentration of 4 mmol/L, and pH was adjusted to 7.4 with 10% NaOH. […]
In this example, a new object recognition test was conducted on the basis of the above examples. […] The time periods for a mouse to explore the two areas were both recorded by a recording instrument, and the recording time was set to 10 min, after which the mouse was taken out and put back in the original cage. […] Testing session (T2): 1 h after the training session ended, one of the cubes was replaced with a cone, the mouse was placed in exactly the same way as the training session, and the time periods for the mouse to explore two different objects were recorded as a new object recognition time (New, N) and a familiar object time (Familiar, F). […]

Data set [3] deals with pThr181. Nature of the data set: expression level of pThr181 in the hippocampus (Western blot). The note with it: KI mice, 4 mmol/L Al(mal)3 i.p. 10 ml/kg, 60 days; relative expression by Western blot. On the procedure: as §1, §2
(§4) This example was different from the above examples in that the determination of expression levels of Tau proteins in the brain was added. The tau-5 and pThr181 levels in animals of each group were determined by Western blot. […] The gray value was analyzed with Quantity one software, and the relative expression level of protein was calculated.

The test system of data set [4] is ApoE4 transgenic mice (KI). Nature of the data set: Morris water maze (place navigation test and space exploration experiment). The note with it: 4 mmol/L Al(mal)3 i.p. 10 ml/kg. On the procedure: as §1, §2
This example was different from Example 1 in that a Morris water maze experiment and a place navigation test were added. […]

Data set [5] deals with tau-5. As to the kind of experiment: expression level of tau-5 in the hippocampus (Western blot). The settings on record: KI mice, 4 mmol/L Al(mal)3 i.p. 10 ml/kg, 60 days; relative expression by Western blot. On the procedure: as §1, §2, §4
In general terms: Immunoblotting shows a protein as a band on a membrane.

A short description of data set [6]: determination of aluminum content in the brain (ICP-MS). The settings on record: each aluminum-exposed group (KI, KO, WT mice), 4 mmol/L Al(mal)3 i.p. 10 ml/kg, 60 days; vs control group. On the procedure: as §1, §3
This example was different from the above Example in that the determination of aluminum content in the brain was added. 60 mg of mouse brain tissue was weighed and put into a microwave digestion tube, 3 ml of nitric acid (guaranteed reagent) was added, and the tube was put in a microwave digestion system for microwave digestion according to a program; after digestion, the solution was filtered with a 0.22 μm microporous filter, and a resulting filtrate was collected in a 5 ml deionized centrifuge tube and then diluted to […] with nitric acid (guaranteed reagent); and the sample was diluted 25 times with Wahaha water, and aluminum content was detected with ICP-MS.

With `Cc1occc(=O)c1[O][Al]([O]c1c(C)occc1=O)[O]c1c(C)occc1=O` [Al, Al(mal)3], in data set [1], the “Aβ42 content in the hippocampus” value was “significantly increased”. Moreover, the “discrimination index (DI)” value in data set [2] is given as “lowest DI”. The “expression level of pThr181 in the hippocampus” value in data set [3] was “significantly increased”. In data set [4] (60 days exposure, days 4 and 5 of training, vs control group), the “escape latency (time to find the platform)” value was “significantly longer”. In data set [4] (60 days, space exploration experiment, 60 s, compared among all groups), the “number of crossing the platform” value is “least number of crossing the platform”. In addition, the “expression level of tau-5 in the hippocampus” value in data set [5] is “significantly increased”. In addition, the brain aluminum content result in data set [6] was “significantly higher”.

(Values after patent US20210329894A1, “METHOD FOR PREPARING ALZHEIMER'S DISEASE (AD) ANIMAL MODEL” (Shanxi Medical University, priority 2020, published 2021).)
